According to ChEMBL document CHEMBL5674871, “EZH2 is required for mouse oocyte meiotic maturation by interacting with and stabilizing spindle assembly checkpoint protein BubRI” (Nucleic Acids Res, 2016):
Calls of active or inactive are those of the source. The calls are words filed in the database; no cut-off is given here.

Assays:
[1] = tested on: Oocyte; test: Effect on EZH2 protein expression in ICR mouse oocyte at 1 uM for 14 hrs by Western blot analysis; assay type: functional, cell-based
[2] = target: Histone-lysine N-methyltransferase EZH2 (Mus musculus) (UniProt Q61188); test: Inhibition of EZH2 in ICR mouse oocyte assessed as EED protein level at 1 uM by Western blot analysis; assay type: cell-based
[3] = target: Histone-lysine N-methyltransferase EZH2 (Mus musculus) (UniProt Q61188); test: Inhibition of EZH2 in ICR mouse oocyte assessed as SUZ12 protein level at 1 uM by Western blot analysis; assay type: cell-based
[4] = target: Histone-lysine N-methyltransferase EZH2 (Mus musculus) (UniProt Q61188); test: Inhibition of EZH2 methyltransferase activity in ICR mouse oocyte assessed as decrease in H3K27 trimethylation level at 1 uM by Immunofluorescence analysis; assay type: cell-based
[5] = target: Histone-lysine N-methyltransferase EZH2 (Mus musculus) (UniProt Q61188); test: Inhibition of EZH2 in ICR mouse oocyte assessed as effect on H3 level at 1 uM by Immunofluorescence analysis; assay type: cell-based
[6] = target: Histone-lysine N-methyltransferase EZH2 (Mus musculus) (UniProt Q61188); test: Inhibition of EZH2 methyltransferase activity in ICR mouse oocyte assessed as effect on H3K9me2 level at 1 uM by Immunofluorescence analysis; assay type: cell-based
[7] = tested on: Oocyte; test: Effect on ICR mouse oocyte meiotic maturation assessed as PB1 extrusions at 1 uM by immunofluorescence analysis; assay type: functional, cell-based
[8] = tested on: Oocyte; test: Effect on ICR mouse oocyte meiotic maturation assessed as abnormal polar bodies extrusions at 1 uM after 14 hrs by immunofluorescence analysis; assay type: functional, cell-based
[9] = tested on: Oocyte; test: Effect on EZH2 protein expression in ICR mouse oocyte at 5 uM for 14 hrs by Western blot analysis; assay type: functional, cell-based
[10] = target: Histone-lysine N-methyltransferase EZH2 (Mus musculus) (UniProt Q61188); test: Inhibition of EZH2 in ICR mouse oocyte assessed as EED protein level at 5 uM by Western blot analysis; assay type: cell-based
[11] = target: Histone-lysine N-methyltransferase EZH2 (Mus musculus) (UniProt Q61188); test: Inhibition of EZH2 in ICR mouse oocyte assessed as SUZ12 protein level at 5 uM by Western blot analysis; assay type: cell-based
[12] = tested on: Oocyte; test: Effect on ICR mouse oocyte meiotic maturation assessed as PB1 extrusions at 5 uM by immunofluorescence analysis; assay type: functional, cell-based
[13] = target: Histone-lysine N-methyltransferase EZH2 (Mus musculus) (UniProt Q61188); test: Inhibition of EZH2 in ICR mouse oocyte assessed as decrease in H3K27 trimethylation level at 5 uM by Immunofluorescence analysis; assay type: cell-based
[14] = target: Histone-lysine N-methyltransferase EZH2 (Mus musculus) (UniProt Q61188); test: Inhibition of EZH2 in ICR mouse oocyte assessed as effect on H3 level at 5 uM by Immunofluorescence analysis; assay type: cell-based
[15] = target: Histone-lysine N-methyltransferase EZH2 (Mus musculus) (UniProt Q61188); test: Inhibition of EZH2 methyltransferase activity in ICR mouse oocyte assessed as decrease in H3K9me2 level at 5 uM by Immunofluorescence analysis; assay type: cell-based

Histone-lysine N-methyltransferase EZH2 (Mus musculus), sequence (Q61188 whole entry): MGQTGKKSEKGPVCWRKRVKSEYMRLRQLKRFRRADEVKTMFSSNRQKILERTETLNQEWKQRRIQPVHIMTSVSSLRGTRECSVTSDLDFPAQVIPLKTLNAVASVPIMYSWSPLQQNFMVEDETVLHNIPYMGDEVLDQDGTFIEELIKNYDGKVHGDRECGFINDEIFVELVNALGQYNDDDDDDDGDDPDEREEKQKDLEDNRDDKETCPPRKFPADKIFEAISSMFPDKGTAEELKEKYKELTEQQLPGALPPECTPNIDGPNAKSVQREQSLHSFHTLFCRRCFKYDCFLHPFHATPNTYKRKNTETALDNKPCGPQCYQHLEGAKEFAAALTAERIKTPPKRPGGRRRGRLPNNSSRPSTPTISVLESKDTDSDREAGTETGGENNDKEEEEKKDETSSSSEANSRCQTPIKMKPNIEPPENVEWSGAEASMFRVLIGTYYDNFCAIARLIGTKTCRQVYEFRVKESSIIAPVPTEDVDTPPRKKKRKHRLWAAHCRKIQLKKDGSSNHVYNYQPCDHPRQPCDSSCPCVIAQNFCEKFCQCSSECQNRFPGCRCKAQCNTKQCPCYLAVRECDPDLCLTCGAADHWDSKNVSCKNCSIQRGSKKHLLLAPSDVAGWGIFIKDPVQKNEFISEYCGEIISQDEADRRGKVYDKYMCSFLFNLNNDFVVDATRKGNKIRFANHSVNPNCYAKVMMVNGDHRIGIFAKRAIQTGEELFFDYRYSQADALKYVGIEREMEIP

Row | Structure (SMILES) | Activity [1] | inhibition [2] | inhibition [3] | inhibition [4] | inhibition [5] | inhibition [6] | Activity [7] | Activity [8] | Activity [9] | inhibition [10] | inhibition [11] | Activity [12] | inhibition [13] | inhibition [14] | inhibition [15]
1 | CCCc1cc(C)[nH]c(=O)c1CNC(=O)c1cc(-c2ccnc(N3CCN(C)CC3)c2)cc2c1cnn2C(C)C | inactive | inactive | inactive | Active | inactive | inactive | inactive | Active |  |  |  |  |  |  | 
2 | Nc1nccc2c1ncn2[C@@H]1C=C(CO)[C@@H](O)[C@H]1O |  |  |  |  |  |  |  |  | inactive | inactive | inactive | inactive | Active | inactive | Active
